Experimental data as given in patent US6303619A, “Meta-substituted acidic 8-phenylxanthine antagonists of A3 human adenosine receptors” (priority 1998, dated 2001).

Target: T1, human A3 adenosine receptor (Homo sapiens, UniProt P0DMS8)
T1 construct: clone HS-21a contained the complete open reading frame corresponding to the human homolog of the rat A3 adenosine receptor; expressed in transfected cells; host or cells: CHO cells stably transfected with HS-21a cDNA
T1 sequence (P0DMS8 1-318): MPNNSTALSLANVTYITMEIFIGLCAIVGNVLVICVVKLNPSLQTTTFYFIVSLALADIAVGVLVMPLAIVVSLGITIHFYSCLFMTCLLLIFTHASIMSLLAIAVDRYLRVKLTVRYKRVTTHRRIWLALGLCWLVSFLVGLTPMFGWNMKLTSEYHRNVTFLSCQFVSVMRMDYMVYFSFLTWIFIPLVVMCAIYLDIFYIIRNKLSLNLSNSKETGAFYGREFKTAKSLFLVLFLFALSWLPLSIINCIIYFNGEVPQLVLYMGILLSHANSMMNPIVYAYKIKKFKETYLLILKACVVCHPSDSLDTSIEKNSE
Assay: 125I-ABA binding to membranes of stably transfected CHO cells expressing the human A3 adenosine receptor (HS-21a)
Details: human A3
Procedure: Membranes were prepared from transiently transfected COS7 cells […] after transfection or from G418-selected stably transfected CHO or HEK 293 cells. Cells were harvested in 1 mM EDTA in phosphate buffered saline and centrifuged at 2000×g for 10 minutes. The cell pellet was washed once with phosphate buffered saline. The cell pellet was resuspended in 2 mL of 5 mM Tris, pH 7.6/5mM MgCl2. Membranes were prepared from the cells by freeze-thaw lysis in which the suspension was frozen in a dry ice/ethanol bath and thawed at 25° C. twice. The suspension was homogenized after adding an additional 2 mL of 5 mM Tris, pH 7.6/5 mM MgCl2, in a glass dounce homogenizer with 20 strokes. The membranes were pelleted at 40,000×g at 4° C. for 20 minutes. The membrane pellet was resuspended at a protein concentration of 1-2 mg/mL in binding assay buffer, 50 mM Tris, pH 7.6/10 mM MgCl2. Protein concentration was determined by the method of Bradford ((1976) Anal. Biochem. 72: 248-250). […] Saturation binding of [^125 I]-N^6 -aminiobenizyladenosine (125I-ABA) or [^125 I]-N^6 -2-(4-amino-3-iodophenyl)ethyladenosine (APNEA) was performed on membranes prepared from pSVLA3 transfected COS7 cells. Membranes (100 μg) were incubated in the presence of 0.2 U/mL adenosine deaminase with increasing concentrations of ^125 I-ABA in the range of 0.1-30 nM for 120 minutes at 25° C. in a total volume of 500 μl. The binding assay was terminated by rapid filtration and three washes with ice-cold 50 mM Tris, pH 7.6/10 mM MgCl2 on a Skatron cell harvester equipped with a receptor binding flitermat (SKATRON INSTRUMENTS, INC). Non-specific binding was determined on non-transfected cells. Bound radioactivity was measured by scintillation counting in Ready Safe Scintillation Cocktail (BECKMAN).
The 1.7 kb HS-21a cDNA (A3) was subcloned as a SalI-BamHl fragment into the expression vector pCMV5 (Mumby, S. M., Heukeroth, R. O., Gordon, J. I. and Gilman, A. G. (1990) Proc. Natl. Acad. Sci. USA 87, 728-732.) creating the vector pCMV5-A3. CHO or HEK 293 cells stably expressing the human HS-21 a cDNA were prepared by co-transfection of 15 μg pCMV5-A3 and 1 μg pWLneo (Stratagene) using the calcium phosphate method. Stable cell lines were also generated using EBV based mammalian expression vectors, pREP (INVITROGEN). Neomycin resistant colonies were selected in 1 mg/mL G418 (GIBCO). Stable colonies were screened for expression of HS-21a by ^125 I-ABA binding.
Membranes were prepared from stable CHO cell lines in 10 mM Hepes, pH 7.4 containing 0.1 mM benzamidine and 0.1 mM PMSF as described (Mahan, L. C. et al., (1991) Mol. Pharinacol. 40, 1-7). Pellets were resuspended in 5 mM Hepes, pH 7.4/5 mM MgCl2 /0.1 mM benzarnidine/0.1 mM PMSF at a protein concentration of 1-2 mg/mL and were incubated with adenosine deaminase (Boehringer Mannheim), 2 U/mL at 37° C. for 20 minutes. Saturation binding of ^125 I-ABA was carried out on 50 μg of membranes for 120 minutes at 25° C. in a total volume of 100 μl. The assay was terminated by rapid filtration and three washes with ice-cold binding buffer on a Skatron harvester equipped with a receptor binding filtermat (Skatron Instruments, Inc.). The specific activity of ^125 I-ABA, initially 2,200 Ci/mmol, was reduced to 100 Ci/mmol with nonradioactive I-ABA for saturation analysis. Nonspecific binding was measured in the presence of 1 uM I-ABA. The KD and Bmax values were calculated by the EBDA program (McPherson, G. A. (1983) Computer Programs for Biomedicine 17, 107-114). Competition binding of agonists and antagonists was determined with ^125 I-ABA (0.17-2.0 nM, 2000 Ci/mmol). […] Binding data were analyzed and competition curves were constructed by use of the nonlinear regression curve fitting program Graph PAD InPlot, Version 3.0 (Graph Pad Software, San Diego).

- A3 antagonist affinity in words: potent and selective A3 antagonist
SMILES: CCCn1c(=O)c2[nH]c(-c3cccc(C=CC(=O)O)c3)nc2n(CCC)c1=O [BW-3911]
